Data on two compounds can be found in patent US5037828A, “Piperazine derivatives, uses thereof and pharmaceutical compositions containing them” (Boehringer Mannheim GmbH, priority 1989, dated 1991).

For test [1], the target named is α1 -receptor. In words: Receptor binding study, displacement of tritium-labeled prazosin in brain membrane homogenates. Conditions: mean of 4-6 experiments, read-out: α1 -receptor affinity IC50. As to the method: 1. The affinities of the compounds were studied in receptor binding studies using prazosin as tritium-labeled ligand. The investigations were performed in brain membrane homogenates. The affinity was expressed as IC50 -value (the IC50 -value is the concentration in nmol/l which displaces 50% of the labeled ligand). Low values indicate a high affinity.

Test [2] has as its system isolated rat aortic strips. As to the kind of experiment: In vitro vasorelaxation of isolated rat aortic strips precontracted with noradrenaline. Conditions: 25 min, 3 × 10^-6 M, noradrenaline 10^-5 M precontraction, end of 25 min incubation, mean of 4-6 experiments. As to the method:
2. In vitro investigations were performed on isolated rat aortic strips precontracted with noradrenaline (10^-5 M). The test compounds were added to the bath solution at concentrations of 3×10^-6 M in order to test for vasorelaxation. The relaxation was evaluated at the end of an incubation period of 25 min. High values indicate a strong vasorelaxing effect.

Test [3] concerns conscious spontaneously hypertensive rats. In words: Blood pressure lowering activity in conscious spontaneously hypertensive rats. Conditions: 10 mg/kg i.v.; 15 min after administration; mean arterial blood pressure; mean of 4-6 experiments. In kind it is in vivo, rat. As to the method:
3. The blood pressure lowering activity of the test compounds was investigated in conscious spontaneously hypertensive rats. The blood pressure response to the test compounds was evaluated by means of continuous monitoring of the mean arterial blood pressure via an implanted catheter, electromagnetic transducer and a direct recording system. The test compounds were injected at a dose of 10 mg/kg i.v. and the blood pressure response was determined 15 min after administration.

The conditions of test [4]: in words; U.S. Pat. No. 3,997,666; cited from earlier work.
Test [5] deals with anaphylactoid reactions in rats induced by dextran. Conditions: in words, U.S. Pat. No. 3,997,666; cited from earlier work.

pIC50: −log10 of the molar value.

A word on the pIC50: it is the negative decadic logarithm of the IC50, by convention in mol/L. What is called inhibition is the relative decrease from the control value, in per cent. A low value points to a response near the control. As to `COc1ccccc1N1CCN(CC(O)COc2ccc(O)c3ccccc23)CC1` (centres unmarked) [Example 3, 1-(2-Methoxyphenyl)-4-[3-(4-hydroxynaphth-1-yloxy)-2-hydroxypropyl]-piperazine], the pIC50 in test [1] is 7.28. In addition, 3 µM produced 85% inhibition in test [2]. In addition, the blood pressure decrease in test [3] was 48 mmHg.

Turning to `COc1ccccc1N1CCN(CC(O)COc2cccc3ccccc23)CC1` (centres unmarked) [naftopidil, 1(2-methoxyphenyl)-4-/3-(naphth-1-yloxy)-2-hydroxypropyl/-piperazine], the negative logarithm of the IC50 (pIC50) in test [1] was 6.63. The compound also registered an inhibition at 3 µM in test [2] of 53%. In test [3], this compound registered a blood pressure decrease of 31 mmHg. Further, in test [4], the antihypertensive properties result is recorded as “possesses antihypertensive properties”. The “inhibition of anaphylactoid reactions induced by dextran” value in test [5] is reported as “inhibits anaphylactoid reactions in rats induced by dextran”.
